Measured values: patent US20050203063A1, “Proteasome pathway inhibitors and related methods” (priority 2003, published 2005)
“Also recorded” adds a separate entry of the source.

How the values were obtained:
26S proteasomes [1] = test: Deubiquitination of UbSic1 by epoxomicin-treated purified 26S proteasomes; type: biochemical, S. cerevisiae; conditions: 100 μM test compound, 100 μM epoxomicin
Description: (§1) FIG. 2. […] (A) Degradation of UbSic1. Purified 26S proteasomes were preincubated in the presence or absence of test compounds. UbSic1 was then added, and degradation assayed as described (6). Py mock refers to the pyridine solvent in which C23 was dissolved which was marginally inhibitory, unlike the 50% DMSO vehicle used for other test compounds. (B) Deubiquitination of UbSic1. […] UbSic1 was then added, and deubiquitination was assayed as described (6). (C) Titration curve with varying concentrations of C92 to determine half-maximal inhibition of deubiquitination. (D) C92 inhibits binding of UbSic1 to 26S proteasomes. Purified 26S proteasomes immobilized on anti-Flag beads were incubated with UbSic1 in the presence or absence of C92 as described (6). Following binding, beads were washed and analyzed by immunoblotting with anti-Sic1 polyclonal serum. (E) Binding of UbSic1 to the polyUb binding proteins Rpn10 and Rad23 is inhibited by C92. Recombinant Gst-Rpn10 and Gst-Rad23 (1 μg each) were immobilized on glutathione sepharose beads and then incubated with UbSic1 in the presence or absence of C92. Following binding, beads were washed and analyzed by immunoblotting. (F) C92 interacts with multiUb chains. Equivalent amounts (5 μg) of purified Gst, Gst-fusion protein or multiUb chains were incubated with C92 or C1 before being loaded on a 5% native polyacryamide gel. Electrophoresis was performed as described (33). (G) C92 and C59 interact specifically with K48-linked Ub on native gels. Ub (16 μM), K48-linked diUb (8 μM), or tetraUb chains (8 μM) were preincubated with a two fold-molar excess (monoUb and diUb), or equivalent amounts (tetraUb) of test compounds before being resolved on native gels as in (G). Tetra K29Ub, K48Ub, and K63Ub refer to tetraubiquitin chains wherein the ubiquitins are linked via K29, K48, or K63.
FIG. 5. […] Assays were performed and evaluated as summarized in the legend to FIG. 2B. The metal chelating reagent phenanthroline is designated as “P”, and “Py” refers to the pyridine solvent that is used as the solvent for C23. (B) Titration curve for C59. (C) Inhibition of binding of ubiquitin conjugates to Gst-Rpn10 by C92 and C59, but not other compounds. The experiment was performed as described for FIG. 2E.
26S proteasomes were purified from S. cerevisiae cells expressing a Flag-tagged proteasomal subunit (PRE1) essentially as described (28).
Reactions were processed as above.

[2] = tested on: β-catenin-luciferase turnover (substrate of the SCFβ-TRCP ubiquitin ligase); test: β-catenin-luciferase turnover in interphase Xenopus extracts stimulated with recombinant axin; type: biochemical; conditions: 200 μM compound
Description: (§2) FIG. 1. Functional classification of inhibitors. Compounds that scored in the initial screen were reacquired as dry powders and retested in Xenopus extracts in 4 assays at 200 μM concentration (32) as described (6). […] (A) Compounds and cyclin-luciferase were added to interphase extracts, which were then induced to enter mitosis by addition of non-degradable cyclin B. Percent inhibition of cyc-luc turnover by each compound is coded according to the grayscale shown at the bottom of the figure; specific values are available in Table 1. (B) Extracts were pre-treated with non-degradable cyclin B to allow entry into mitosis prior to addition of test compound and reporter protein. (C) Interphase extracts were treated by addition of recombinant Cdh1 to activate cyc-luc turnover. (D) Interphase extracts were treated with recombinant axin to induce turnover of β-catenin-luciferase.
(§3) The “Cmpd” column corresponds to the numbers used in FIG. 1; “Class” refers to the class of inhibitor described in FIG. 1 and the text. Columns A-D show percent inhibition in the four assays described in FIG. 1. (A) Interphase extracts (B) Mitotic extracts (C) Interphase extracts stimulated with Cdh1 (D) Degradation of a β-catenin reporter protein in interphase extracts stimulated with recombinant axin. […] “ID#” refers to the identification number of the inhibitor obtained from the NCI (prefaced by NSC) or Chembridge (prefaced by C).
(§4) Dry compounds were redissolved at 20 mM concentration in DMSO, or a 50:50 water:DMSO mixture in certain cases. These compounds were then diluted ten-fold in XB and mixed thoroughly. For the assay in FIG. 1A, chilled interphase extract was mixed with cyclin BΔ90 (10 μg/ml) and cyc-luc (0.1 μg/ml) in bulk and then 27 μl of extract was pipetted to each well of a chilled 384-well plate. Three microliters of each compound (diluted in XB) was then added to each well, and then compounds mixed thoroughly. Plates were warmed to room temperature. After 70 minutes, 5 μl aliquots were transferred to another plate, and then 30 μl of luciferin reagent was added to each well and luminescence measured. Percent inhibition was calculated as described above. The reported values represent the average of three independent measurments. For the assay in FIG. 1B, interphase extracts were treated with 10 μg/cyclin B 90 for 50 minutes at room temperature and then chilled on ice. Cyc-luc was then added, and then 27 μl of extract was pipetted to each well of a chilled 384-well plate. Three microliters of each compound (diluted in XB) was then added to each well, and then compounds mixed thoroughly. Plates were warmed to room temperature. After 60 minutes, 5 μl aliquots were transferred to another plate, and then 30 μl of luciferin reagent was added to each well and luminescence measured. For the assay in FIG. 1C, recombinant Cdh1 (0.1 μg/ml) and cyc-luc were added to chilled interphase extracts. Extracts were then pipetted and compounds added as above. Plates were warmed to room temperature and incubated for three hours, following which luminescence was measured as above. For the assay in FIG. 1D, chilled interphase extracts received recombinant axin and beta-catenin-luciferase reporter as described (8). Extracts were aliquoted to chilled plates and compounds distributed as described above. Plates were warmed to room temperature, incubated for three hours, and luminescence measured.

[3] = tested on: cyclin-luciferase (cyc-luc) turnover, activated APC/C; test: cyc-luc turnover in mitotic Xenopus extracts (pre-treated with non-degradable cyclin B); type: biochemical; conditions: 200 μM compound; extracts in mitosis before addition of compound
Description: as §2, §3, §4

26S proteasomes [4] = test: Degradation of UbSic1 by purified 26S proteasomes; type: biochemical, S. cerevisiae; conditions: concentrations as low as 10 μM
Description: as §1
Sic1 is a Cdk inhibitor in Saccharomyces cerevisiae that must be degraded for cells to enter S-phase (9-11). […]

SMILES: O=C(Nc1ccc(/C=C/c2ccc(NC(=O)c3cc(S(=O)(=O)O)c4cccnc4c3O)cc2S(=O)(=O)O)c(S(=O)(=O)O)c1)c1cc(S(=O)(=O)O)c2cccnc2c1O [Compound 92]
- inhibition of deubiquitination of UbSic1 (in words) (26S proteasomes [1]): completely blocked
- percent inhibition, (D) Degradation of a β-catenin reporter protein in interphase extracts stimulated with recombinant axin [2]: 21%
- percent inhibition of cyc-luc turnover, (B) Mitotic extracts [3]: 22%
- inhibitory effect on Sic1 (UbSic1) turnover (26S proteasomes [4]): strong inhibitory effect

SMILES: O=S(=O)(O)c1ccc2cc3c(cc2c1)NN(c1ccc(/C=C/c2ccc(N4Nc5cc6ccc(S(=O)(=O)O)cc6cc5N4)cc2S(=O)(=O)O)c(S(=O)(=O)O)c1)N3 [Compound 59]
- inhibition of deubiquitination of UbSic1 (in words) (26S proteasomes [1]): Complete inhibition
- percent inhibition, (D) Degradation of a β-catenin reporter protein in interphase extracts stimulated with recombinant axin [2]: 70%
- percent inhibition of cyc-luc turnover, (B) Mitotic extracts [3]: 100%
- inhibitory effect on Sic1 (UbSic1) turnover (26S proteasomes [4]): strong inhibitory effect

SMILES: CC(=O)Nc1ccc(SSc2ccc(NC(C)=O)c3cccnc23)c2ncccc12 [Compound 23]
- inhibition of deubiquitination of UbSic1 (in words) (26S proteasomes [1]; listed as C23): marginal inhibition; also recorded: inhibited marginally
- percent inhibition, (D) Degradation of a β-catenin reporter protein in interphase extracts stimulated with recombinant axin [2]: 27%
- percent inhibition of cyc-luc turnover, (B) Mitotic extracts [3]: 100%
- inhibitory effect on Sic1 (UbSic1) turnover (26S proteasomes [4]): more modest effect
